Patent publication US10683487B2, “Myrmecridium flexuosum NUK-21, novel lactose oxidase isolated from Myrmecridium flexuosum NUK-21, and method for conversion of lactose into lactobionic acid by novel lactose oxidase” (NATIONAL UNIVERSITY OF KAOHSIUNG, priority 2017, dated 2020)
Where two headings read alike, the source gives them in different places.

Experiments:
[1] = system: lactose oxidase of the NUK-21 strain; assay: Effects of chemicals on enzyme activity (dissolved oxygen assay); format: biochemical, Myrmecridium flexuosum NUK-21
Method: The purified enzyme was added to A buffer containing 1 mM of various chemical solution and incubated in a water bath at 30° C. for 1 hour. Dissolved oxygen assay was used to determine the enzyme activity of lactose oxidase.

NUK-21 strain = format: cell-based, Myrmecridium flexuosum NUK-21
[2] = system: lactose oxidase of the NUK-21 strain; format: biochemical, Myrmecridium flexuosum NUK-21
[3] = system: lactose oxidase of the NUK-21 strain; assay: Substrate specificity of lactose oxidase (OD500 nm peroxidase chromogen assay); format: biochemical, Myrmecridium flexuosum NUK-21
Method: Fifty mM of various buffers with different pH values were prepared, including CH3COOH—CH3COONa (pH 4.5-5.5), K2HPO4—NaH2PO4 (pH 5.5-8.0), Tris-HCl (pH 7.0-9.0), and Na2CO3—NaHCO3 (pH 9.0-11). Enzyme activity was determined by peroxidase chromogen method (Clin Chem, 1974; 20:470-475). The substrate, buffer and enzyme were premixed and reacted for 2 minutes, and then 4-aminoantipyrine (4-AA) coloring solution was added for reaction. A spectrophotometer was used to detect the absorbance of OD500 nm at room temperature (detection at every 15 seconds for a total of 90 seconds). The principle of the 4-AA assay is that the lactose oxidase oxidized lactose to lactobionic acid, which reduces dissolved oxygen to hydrogen peroxide, and the hydrogen peroxide, phenol, and 4-AA were catalyzed by the peroxidase to produce a red quinoneimine structure and show a stable signal at OD 500 nm.
The enzyme activity was defined as the enzyme concentration that produces 1 μmole hydrogen peroxide per minute. […] Calculation of enzyme activity: unit/ml=(ΔA500 nm/t)×(Vt/6.8)×(1/Ve)×n, in which ΔA500 nm:A500 nm variation in t minutes, 6.8: absorption coefficient of chromogenic material (mM^−1 cm^−1), Vt: total reaction volume, Ve: volume of enzyme was added, and n: fold of dilution of enzyme solution.
A spectrophotometer was used to detect the absorbance of OD500 nm at room temperature (detection at every 15 seconds for a total of 90 seconds), and the enzyme activity was determined.

[4] = system: carbohydrate oxidases from different strains; conditions: cited from earlier work
carbohydrate oxidases = conditions: cited from earlier work
[5] = metal ions 0.01%, 4% wheat bran medium, 30° C., 4 days
[6] = metal ions 1 mM, 30° C., 1 hour, 0.7 mM lactose

**Q.** Which Relative activity ([1]; chemical 1 mM, 30° C., 1 hour) does the source give for `c1cnc2c(c1)ccc1cccnc12` [1,10-phenanthroline] here?
**A.** 98.8%

**Q.** Which Relative activity ([1]; chemical 1 mM, 30° C., 1 hour) does the source give for `O=C(CBr)c1ccc(Br)cc1` [2,4′-dibromoacetophenone] here?
**A.** 99%

**Q.** Which results are given for `O=[N+]([O-])[O-].[Ag+]` [AgNO3]?
**A.** Enzyme activity (NUK-21 strain; [5]): 0.28 unit/ml; Relative activity [2, 6]: 107.9%

**Q.** With `O=S(=O)([O-])[O-].O=S(=O)([O-])[O-].O=S(=O)([O-])[O-].[Al+3].[Al+3]` [Al2(SO4)3] as the molecule, how does the Enzyme activity (NUK-21 strain; [5]) read?
**A.** 0.37 unit/ml

**Q.** With `[Ca+2].[Cl-].[Cl-]` [CaCl2] as the molecule, how does the Enzyme activity (NUK-21 strain; [5]) read?
**A.** 0.20 unit/ml

**Q.** And the Relative activity [2, 6]?
**A.** 109.5%

**Q.** With `O=S(=O)([O-])[O-].[Cd+2]` [CdSO4] as the molecule, how does the Enzyme activity (NUK-21 strain; [5]) read?
**A.** 0.42 unit/ml

**Q.** What about the Relative activity [2, 6] of the same molecule?
**A.** 100%

**Q.** With `O=C[C@H](O)[C@@H](O)[C@H](O[C@@H]1O[C@H](CO)[C@@H](O)[C@H](O)[C@H]1O)[C@H](O)CO` [Cellobiose] as the molecule, how does the Relative activity ([3]; 0.7 mM substrate) read?
**A.** 83.4%

**Q.** And the Relative activity ([3]; 7 mM substrate)?
**A.** 81.7%

**Q.** With `[Cl-].[Cl-].[Co+2]` [CoCl2] as the molecule, how does the Enzyme activity (NUK-21 strain) read?
**A.** 0.26 unit/ml

**Q.** What about the Relative activity [2] of the same molecule?
**A.** 110.2%

**Q.** With `O=S(=O)([O-])[O-].[Cu+2]` [CuSO4] as the molecule, how does the Enzyme activity (NUK-21 strain; [5]) read?
**A.** 0.61 unit/ml

**Q.** And the Relative activity [2, 6]?
**A.** 96.8%

**Q.** Which results are given for `O=C(O)CN(CCN(CC(=O)O)CC(=O)O)CC(=O)O` [EDTA]?
**A.** Relative activity [1]: 136.3%; effect on enzyme activity (in words) [1]: activated

**Q.** For `O=S(=O)([O-])[O-].O=S(=O)([O-])[O-].O=S(=O)([O-])[O-].[Fe+3].[Fe+3]` [Fe2(SO4)3], which Enzyme activity (NUK-21 strain; [5]) is on record?
**A.** 0.25 unit/ml

**Q.** For `[Cl][Fe]([Cl])[Cl]` [FeCl3], which Enzyme activity (NUK-21 strain; [5]) is on record?
**A.** 0.27 unit/ml

**Q.** What about the Relative activity [2, 6] of the same molecule?
**A.** 103.2%

**Q.** What does the source list for `O=S(=O)([O-])[O-].[Fe+2]` [FeSO4]?
**A.** Relative activity [2, 6]: 61.1%; Relative activity ([2]; metal ions 1 mM, 30° C., 1 hour, 0.7 mM lactose, listed as Fe^2+): 61.3%

**Q.** Which Relative activity ([3]; 0.7 mM substrate) does the source give for `O=C(CO)[C@@H](O)[C@H](O)[C@H](O)CO` [Fructose] here?
**A.** 0%

**Q.** What about the Relative activity ([3]; 7 mM substrate) of the same molecule?
**A.** 0%

**Q.** Which results are given for `O=C[C@H](O)[C@@H](O)[C@@H](O)[C@H](O)CO` [Galactose]?
**A.** Relative activity ([3]; 0.7 mM substrate): 0%; Relative activity ([3]; 7 mM substrate): 1.8%

**Q.** With `OO` [H2O2] as the molecule, how does the Relative activity ([1]; chemical 1 mM, 30° C., 1 hour) read?
**A.** 100%

**Q.** With `[Cl][Hg][Cl]` [HgCl2] as the molecule, how does the Enzyme activity (NUK-21 strain; [5]) read?
**A.** 0.02 unit/ml

**Q.** What about the Relative activity [2, 6] of the same molecule?
**A.** 153.8%

**Q.** For `O=S(=O)([O-])[O-].[K+].[K+]` [K2SO4], which Enzyme activity (NUK-21 strain; [5]) is on record?
**A.** 0.26 unit/ml

**Q.** What does the source list for `OC[C@H]1O[C@@H](O[C@H]2[C@H](O)[C@@H](O)C(O)O[C@@H]2CO)[C@H](O)[C@@H](O)[C@H]1O` (stereo partly shown) [Lactose]?
**A.** Relative activity ([3]; 0.7 mM substrate): 100%; Relative activity ([3]; 7 mM substrate): 100%

**Q.** With `OC[C@H]1O[C@H](O[C@H]2[C@H](O)[C@@H](O)[C@H](O)O[C@@H]2CO)[C@H](O)[C@@H](O)[C@@H]1O` [Maltose] as the molecule, how does the Relative activity ([3]; 0.7 mM substrate) read?
**A.** 4.1%

**Q.** What about the Relative activity ([3]; 7 mM substrate) of the same molecule?
**A.** 24.8%

**Q.** For `O=S(=O)([O-])[O-].[Mn+2]` [MnSO4], which Enzyme activity (NUK-21 strain; [5]) is on record?
**A.** 0.37 unit/ml

**Q.** With `CCN1C(=O)C=CC1=O` [N-ethylmaleimide] as the molecule, how does the “effect on enzyme activity (in words)” value ([1]; chemical 1 mM) read?
**A.** activated

**Q.** And the Relative activity ([1]; chemical 1 mM, 30° C., 1 hour)?
**A.** 139.5%

**Q.** With `O=S(=O)([O-])[O-].[Na+].[Na+]` [Na2SO4] as the molecule, how does the Enzyme activity (NUK-21 strain; [5]) read?
**A.** 0.26 unit/ml

**Q.** For `[N-]=[N+]=[N-].[Na+]` [NaN3], which “effect on enzyme activity (in words)” value ([1]; chemical 1 mM) is on record?
**A.** activated

**Q.** And the Relative activity ([1]; chemical 1 mM, 30° C., 1 hour)?
**A.** 131.3%

**Q.** For `[Cl][Ni][Cl]` [NiCl2], which Enzyme activity (NUK-21 strain; [5]) is on record?
**A.** 0.43 unit/ml

**Q.** Which Relative activity [2, 6] does the source give for `O=S(=O)([O-])[O-].[Ni+2]` [NiSO4] here?
**A.** 100%

**Q.** With `O=S(=O)(F)Cc1ccccc1` [PMSF] as the molecule, how does the Relative activity ([1]; chemical 1 mM, 30° C., 1 hour) read?
**A.** 104.9%

**Q.** Which Enzyme activity (NUK-21 strain; [5]) does the source give for `[Cl][Pb][Cl]` [PbCl2] here?
**A.** 0.29 unit/ml

**Q.** And the Relative activity [2, 6]?
**A.** 89.7%

**Q.** With `[Cl][Sn][Cl]` [SnCl2] as the molecule, how does the Relative activity [2, 6] read?
**A.** 61.3%

**Q.** And the Relative activity ([2]; metal ions 1 mM, 30° C., 1 hour, 0.7 mM lactose, listed as Sn^2+)?
**A.** 89.7%

**Q.** Which Enzyme activity (NUK-21 strain; [5]) does the source give for `[Cl][Sn]([Cl])([Cl])[Cl]` [SnCl4] here?
**A.** 0.32 unit/ml

**Q.** Which results are given for `OC[C@@H](O)[C@@H](O)[C@H](O)[C@@H](O)CO` [Sorbitol]?
**A.** Relative activity ([3]; 0.7 mM substrate): 0%; Relative activity ([3]; 7 mM substrate): 0%

**Q.** What does the source list for `OC[C@H]1O[C@@](CO)(O[C@H]2O[C@H](CO)[C@@H](O)[C@H](O)[C@H]2O)[C@@H](O)[C@@H]1O` [Sucrose]?
**A.** Relative activity ([3]; 0.7 mM substrate): 0%; Relative activity ([3]; 7 mM substrate): 0%

**Q.** Which results are given for `OC[C@@H](O)[C@H](O)[C@@H](O)CO` [Xylitol]?
**A.** Relative activity ([3]; 0.7 mM substrate): 0%; Relative activity ([3]; 7 mM substrate): 0%

**Q.** Which Relative activity ([3]; 0.7 mM substrate) does the source give for `O=C[C@H](O)[C@@H](O)[C@H](O)CO` [Xylose] here?
**A.** 0%

**Q.** And the Relative activity ([3]; 7 mM substrate)?
**A.** 0%

**Q.** With `O=S(=O)([O-])[O-].[Zn+2]` [ZnSO4] as the molecule, how does the Enzyme activity (NUK-21 strain; [5]) read?
**A.** 0.22 unit/ml

**Q.** Which results are given for `O=C(O)[C@H](O)[C@@H](O)[C@H](O[C@@H]1O[C@H](CO)[C@H](O)[C@H](O)[C@H]1O)[C@H](O)CO` [lactobionic acid]?
**A.** Relative activity ([3]; 0.7 mM substrate): 0%; Relative activity ([3]; 7 mM substrate): 0%

B1: Glucooligosaccharide oxidase: carbohydrate oxidase from Acremonium strictum (protein, UniProt Q6PW77 26-499, looked up)
Glucooligosaccharide oxidase: NSINACLAAADVEFHEEDSEGWDMDGTAFNLRVDYDPAAIAIPRSTEDIAAAVQCGLDAGVQISAKGGGHSYGSYGFGGEDGHLMLELDRMYRVSVDDNNVATIQGGARLGYTALELLDQGNRALSHGTCPAVGVGGHVLGGGYGFATHTHGLTLDWLIGATVVLADASIVHVSETENADLFWALRGGGGGFAIVSEFEFNTFEAPEIITTYQVTTTWNRKQHVAGLKALQDWAQNTMPRELSMRLEINANALNWEGNFFGNAKDLKKILQPIMKKAGGKSTISKLVETDWYGQINTYLYGADLNITYNYDVHEYFYANSLTAPRLSDEAIQAFVDYKFDNSSVRPGRGWWIQWDFHGGKNSALAAVSNDETAYAHRDQLWLWQFYDSIYDYENNTSPYPESGFEFMQGFVATIEDTLPEDRKGKYFNYADTTLTKEEAQKLYWRGNLEKLQAIKAKYDPEDVFGNVVSVEPIA
**Q.** For B1, which Substrate specificity ([4]; cellobiose) is on record?
**A.** 120%

**Q.** And the Substrate specificity ([4]; lactose)?
**A.** 100%

**Q.** And the Km ([4]; substrate cellobiose)?
**A.** 120 µM

**Q.** What about the Km ([4]; substrate lactose) of the same molecule?
**A.** 380 µM

**Q.** What about the “optimum pH” value (carbohydrate oxidases) of the same molecule?
**A.** 10
